Results reported in patent US20070049564A1 (Wyeth, priority 2005, published 2007).
Read-outs that look alike come from different tables or passages of the source.

Columns and labels:
[1] = tested on: E. coli GC 1073; assay: MIC, broth microdilution; conditions: Escherichia coli
[2] = tested on: S. aureus GC 6467; assay: MIC, broth microdilution; conditions: Staphylococcus aureus
[3] = tested on: E. coli GC 4560; assay: MIC, broth microdilution; conditions: Escherichia coli
[4] = tested on: E. faecium GC 4556; assay: MIC, broth microdilution; conditions: Enterococcus faecium
[5] = tested on: E. coli GC 2270; assay: MIC, broth microdilution; conditions: Escherichia coli
Description: Antimicrobial susceptibility testing. The in vitro activities of the antibiotics are determined by the broth microdilution method as recommended by the National Committee for Clinical Laboratory Standards (NCCLS) (1). Mueller-Hinton II broth (MHBII)(BBL Cockeysville, Md.) is the medium employed in the testing procedures. Microtiter plates containing serial dilutions of each antimicrobial agent are inoculated with each organism to yield the appropriate density (10^5 CFU/ml) in a 100 μl final volume. The plates are incubated for 18-22 hours at 35° C. in ambient air.
Representative compounds were first incubated in mouse serum for an hour prior to the in vitro testing against a panel of selected gram-positive and gram-negative bacteria strains. All compounds were also pre-incubated in water for an hour prior to testing as control. Representative compounds of Formula I were incubated in human serum prior to MIC determination.

[6] = tested on: S. aureus GC 2216; assay: MIC, broth microdilution; conditions: Staphylococcus aureus
[7] = tested on: E. faecalis GC 2242; assay: MIC, broth microdilution; conditions: Enterococcus faecalis
[8] = tested on: S. typhimurium GC 2172; assay: MIC, broth microdilution; conditions: Salmonella enterica, TYPHIMURIUM
[9] = tested on: S. aureus GC 4536; assay: MIC, broth microdilution; conditions: Staphylococcus aureus
[10] = tested on: E. coli GC 2235; assay: MIC, broth microdilution; conditions: Escherichia coli
[11] = tested on: c. albicans GC 3066; assay: MIC, broth microdilution
[12] = tested on: E. coli; assay: Range of MIC for E. coli strains; conditions: Escherichia coli
[13] = tested on: E. coli GC 2231; assay: MIC, broth microdilution; conditions: Escherichia coli
[14] = tested on: E. faecium GC 2243; assay: MIC, broth microdilution; conditions: Enterococcus faecium
[15] = tested on: S. aureus GC 6466; assay: MIC, broth microdilution; conditions: Staphylococcus aureus
[16] = tested on: E. coli GC 6465; assay: MIC, broth microdilution; conditions: Escherichia coli
[17] = tested on: Staph.; assay: Range of MIC for Staph. strains, including MRSA; conditions: Staphylococcus aureus
[18] = tested on: S. aureus GC 1079; assay: MIC, broth microdilution; conditions: Staphylococcus aureus
[19] = tested on: S. aureus GC 6469; assay: MIC, broth microdilution; conditions: Staphylococcus aureus
[20] = tested on: E. coli GC 2233; assay: MIC, broth microdilution; conditions: Escherichia coli

Cc1ccc(C(=O)OCOC(=O)N(CC(=O)Nc2cc(N(C)C)c3c(c2O)C(=O)C2=C(O)[C@]4(O)C(=O)C(C(N)=O)=C(O)[C@@H](N(C)C)[C@@H]4C[C@@H]2C3)C(C)(C)C)cc1 [Example 47]
1 to 2 µg/mL: MIC ([17]; MRSA, read-out: Range of MIC, Staph (Mouse Serum))
2 to 4 µg/mL: MIC ([17]; MRSA, read-out: Range of MIC, Staph (Water)) | MIC ([17]; read-out: Minimum inhibitory concentration (MIC), Staph (Water))
4 µg/mL: MIC ([2]; GC6467, read-out: MINIMAL INHIBITORY CONCENTRATION MIC, pre-incubated in Water) | MIC ([3]; GC4560, read-out: MINIMAL INHIBITORY CONCENTRATION MIC, pre-incubated in Human Serum) | MIC ([4]; GC4556, read-out: MINIMAL INHIBITORY CONCENTRATION MIC, pre-incubated in Human Serum) | MIC ([4]; GC4556, read-out: MINIMAL INHIBITORY CONCENTRATION MIC, pre-incubated in Water) | MIC ([7]; GC2242, read-out: MINIMAL INHIBITORY CONCENTRATION MIC, pre-incubated in Human Serum) | MIC ([7]; GC2242, read-out: MINIMAL INHIBITORY CONCENTRATION MIC, pre-incubated in Water) | MIC ([8]; read-out: MINIMAL INHIBITORY CONCENTRATION MIC, pre-incubated in Mouse Serum) | MIC ([9]; GC4536, read-out: MINIMAL INHIBITORY CONCENTRATION MIC, pre-incubated in Water) | MIC ([19]; GC6469, read-out: MINIMAL INHIBITORY CONCENTRATION MIC, pre-incubated in Water)
0.5 µg/mL: MIC ([5]; GC2270, read-out: MINIMAL INHIBITORY CONCENTRATION MIC, pre-incubated in Mouse Serum) | MIC ([14]; GC2243, read-out: MINIMAL INHIBITORY CONCENTRATION MIC, pre-incubated in Mouse Serum) | MIC ([20]; GC2233, read-out: MINIMAL INHIBITORY CONCENTRATION MIC, pre-incubated in Mouse Serum)
0.5 to 2 µg/mL: MIC ([12]; 20 h, read-out: Range of MIC, E. coli (Mouse Serum))
>64 UG/ML: MINIMAL INHIBITORY CONCENTRATION MIC ([11]; pre-incubated in Human Serum) | MINIMAL INHIBITORY CONCENTRATION MIC ([11]; pre-incubated in Mouse Serum)
16 µg/mL: MIC ([3]; GC4560, read-out: MINIMAL INHIBITORY CONCENTRATION MIC, pre-incubated in Water) | MIC ([5]; GC2270, read-out: MINIMAL INHIBITORY CONCENTRATION MIC, pre-incubated in Human Serum) | MIC ([10]; GC2235, read-out: MINIMAL INHIBITORY CONCENTRATION MIC, pre-incubated in Human Serum) | MIC ([20]; GC2233, read-out: MINIMAL INHIBITORY CONCENTRATION MIC, pre-incubated in Human Serum)
> 64 µg/mL: MIC ([1]; GC1073, read-out: MINIMAL INHIBITORY CONCENTRATION MIC, pre-incubated in Water) | MIC ([5]; GC2270, read-out: MINIMAL INHIBITORY CONCENTRATION MIC, pre-incubated in Water) | MIC ([8]; read-out: MINIMAL INHIBITORY CONCENTRATION MIC, pre-incubated in Human Serum) | MIC ([8]; read-out: MINIMAL INHIBITORY CONCENTRATION MIC, pre-incubated in Water) | MIC ([10]; GC2235, read-out: MINIMAL INHIBITORY CONCENTRATION MIC, pre-incubated in Water) | MIC ([11]; Candida albicans, GC3066, read-out: MINIMAL INHIBITORY CONCENTRATION MIC) | MIC ([12]; read-out: Minimum inhibitory concentration (MIC), E. coli (water)) | MIC ([12]; read-out: Range of MIC, E. coli (Water)) | MIC ([13]; GC2231, read-out: MINIMAL INHIBITORY CONCENTRATION MIC, pre-incubated in Water) | MIC ([16]; GC6465, read-out: MINIMAL INHIBITORY CONCENTRATION MIC, pre-incubated in Human Serum) | MIC ([16]; GC6465, read-out: MINIMAL INHIBITORY CONCENTRATION MIC, pre-incubated in Water) | MIC ([20]; GC2233, read-out: MINIMAL INHIBITORY CONCENTRATION MIC, pre-incubated in Water)
1 µg/mL: MIC ([2]; GC6467, read-out: MINIMAL INHIBITORY CONCENTRATION MIC, pre-incubated in Mouse Serum) | MIC ([3]; GC4560, read-out: MINIMAL INHIBITORY CONCENTRATION MIC, pre-incubated in Mouse Serum) | MIC ([4]; GC4556, read-out: MINIMAL INHIBITORY CONCENTRATION MIC, pre-incubated in Mouse Serum) | MIC ([6]; GC2216, read-out: MINIMAL INHIBITORY CONCENTRATION MIC, pre-incubated in Human Serum) | MIC ([6]; GC2216, read-out: MINIMAL INHIBITORY CONCENTRATION MIC, pre-incubated in Mouse Serum) | MIC ([7]; GC2242, read-out: MINIMAL INHIBITORY CONCENTRATION MIC, pre-incubated in Mouse Serum) | MIC ([9]; GC4536, read-out: MINIMAL INHIBITORY CONCENTRATION MIC, pre-incubated in Human Serum) | MIC ([9]; GC4536, read-out: MINIMAL INHIBITORY CONCENTRATION MIC, pre-incubated in Mouse Serum) | MIC ([10]; GC2235, read-out: MINIMAL INHIBITORY CONCENTRATION MIC, pre-incubated in Mouse Serum) | MIC ([13]; GC2231, read-out: MINIMAL INHIBITORY CONCENTRATION MIC, pre-incubated in Mouse Serum) | MIC ([15]; GC6466, read-out: MINIMAL INHIBITORY CONCENTRATION MIC, pre-incubated in Human Serum) | MIC ([15]; GC6466, read-out: MINIMAL INHIBITORY CONCENTRATION MIC, pre-incubated in Mouse Serum) | MIC ([18]; GC1079, read-out: MINIMAL INHIBITORY CONCENTRATION MIC, pre-incubated in Mouse Serum) | MIC ([19]; GC6469, read-out: MINIMAL INHIBITORY CONCENTRATION MIC, pre-incubated in Mouse Serum)
2 µg/mL: MIC ([1]; GC1073, read-out: MINIMAL INHIBITORY CONCENTRATION MIC, pre-incubated in Mouse Serum) | MIC ([2]; GC6467, read-out: MINIMAL INHIBITORY CONCENTRATION MIC, pre-incubated in Human Serum) | MIC ([6]; GC2216, read-out: MINIMAL INHIBITORY CONCENTRATION MIC, pre-incubated in Water) | MIC ([14]; GC2243, read-out: MINIMAL INHIBITORY CONCENTRATION MIC, pre-incubated in Human Serum) | MIC ([14]; GC2243, read-out: MINIMAL INHIBITORY CONCENTRATION MIC, pre-incubated in Water) | MIC ([15]; GC6466, read-out: MINIMAL INHIBITORY CONCENTRATION MIC, pre-incubated in Water) | MIC ([16]; GC6465, read-out: MINIMAL INHIBITORY CONCENTRATION MIC, pre-incubated in Mouse Serum) | MIC ([18]; GC1079, read-out: MINIMAL INHIBITORY CONCENTRATION MIC, pre-incubated in Human Serum) | MIC ([18]; GC1079, read-out: MINIMAL INHIBITORY CONCENTRATION MIC, pre-incubated in Water) | MIC ([19]; GC6469, read-out: MINIMAL INHIBITORY CONCENTRATION MIC, pre-incubated in Human Serum)
1 to 4 µg/mL: MIC ([17]; read-out: Minimum inhibitory concentration (MIC), Staph (Human Serum))
32 µg/mL: MIC ([1]; GC1073, read-out: MINIMAL INHIBITORY CONCENTRATION MIC, pre-incubated in Human Serum) | MIC ([13]; GC2231, read-out: MINIMAL INHIBITORY CONCENTRATION MIC, pre-incubated in Human Serum)
